We go through 45 compounds from US9023865B2, “Compounds that are ERK inhibitors” (Merck Sharp & Dohme Corp., priority 2011, dated 2015).

Where two headings read alike, the source gives them in different places.

In this assay the target is Active Human ERK2 (hERK2) (Homo sapiens (Human), UniProt P28482). In words: Active Human ERK2 (hERK2) Activity Assay (IMAP-FP). The format is biochemical. An outline of the steps: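 Phosphorylation by activated human ERK2 (0.5 nM) at 30 μM ATP, peptide substrate 900 nM unlabeled with 80 nM labeled, proceeds 60 min. IMAP beads stop the reaction; after 60 min equilibration, product is measured by fluorescence polarization.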

[1] abbreviates: phosphorylated active hERK2, 30 μM ATP, average, read-out: ERK 2 Human average IC50.
Setting [2] is: read-out: AERK2 IC50 (Active human ERK2 Activity Assay).

Sequence of Active Human ERK2 (hERK2) (P28482 whole entry): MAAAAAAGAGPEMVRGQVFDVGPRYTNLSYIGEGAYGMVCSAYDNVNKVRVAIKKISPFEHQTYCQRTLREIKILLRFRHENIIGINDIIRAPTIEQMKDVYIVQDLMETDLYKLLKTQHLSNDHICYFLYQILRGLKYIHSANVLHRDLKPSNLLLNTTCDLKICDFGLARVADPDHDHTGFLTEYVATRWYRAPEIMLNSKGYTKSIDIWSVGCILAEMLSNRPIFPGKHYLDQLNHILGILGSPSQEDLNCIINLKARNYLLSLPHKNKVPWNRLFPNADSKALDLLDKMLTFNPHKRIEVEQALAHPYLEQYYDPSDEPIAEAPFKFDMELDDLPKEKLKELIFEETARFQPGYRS

The term IC50 denotes the concentration at which inhibition is half-maximal. With `Cc1cc(-c2n[nH]c3cc(NC(=O)NCc4nc(N)cs4)ncc23)ccn1` [Example 473], the half-inhibitory concentration (IC50) under setting [1] was 2.69 nM. Take `C[C@@H](NC(=O)Nc1cc2[nH]nc(-c3ccc4nnn(C)c4c3)c2cn1)c1ccc(F)cc1` [Example 260]: under setting [1], the IC50 was found to be 0.309 nM. On to `Cc1cc(-c2n[nH]c3cc(NC(=O)N[C@@H]4CNC[C@H]4F)ncc23)ccn1` [Example 325], for which, under setting [1], the IC50 is 3.96 nM. For `O=C(Nc1cc2[nH]nc(C(F)F)c2cn1)N[C@H](COCC1CC1)c1ccccc1` [Example 693], the IC50 under setting [1] stood at 21.4 nM. As to `CCS(=O)(=O)c1ccc(-c2n[nH]c3cc(NC(=O)N[C@H](C)c4ccc(F)cc4)ncc23)cn1` [Example 311], the half-inhibitory concentration (IC50) under setting [1] came out at 26.2 nM. With `Cc1cc(-c2n[nH]c3cc(NC(=O)N[C@@H](CO)c4cccc5cc[nH]c45)ncc23)ccn1` [Example 363], the IC50 under setting [1] amounted to 25.9 nM. On to `Cc1cc(-c2n[nH]c3cc(NC(=O)N[C@@H]4CCCc5cccnc54)ncc23)ccn1` [Example 262, 1-[3-(2-methylpyridin-4-yl)-1H-pyrazolo[4,3-c]pyridin-6-yl]-3-[(8R)-5,6,7,8-tetrahydroquinolin-8-yl]urea], for which, under setting [1], the IC50 is 1.25 nM. Regarding `Cc1cc(-c2n[nH]c3cc(NC(=O)NC(CS(C)(=O)=O)c4ccccc4)ncc23)ccn1` (centres unmarked) [Example 566], the IC50 under setting [1] was 0.313 nM. Still for that read-out and setting: next, `Cc1cc(-c2n[nH]c3cc(NC(=O)NCCN4CCC(c5ccccc5)C4)ncc23)ccn1` (centres unmarked) [Example 401]: 20 nM; `Cc1cc(-c2n[nH]c3cc(NC(=O)N[C@@H]4CCCCc5ccccc54)ncc23)ccn1` [Example 265]: 1.64 nM. For the compound `Cc1cc(-c2n[nH]c3cc(NC(=O)NCC4CC4)ncc23)ccn1` [Example 35, 1-(cyclopropylmethyl)-3-[3-(2-methylpyridin-4-yl)-1H-pyrazolo[4,3-c]pyridin-6-yl]urea], the IC50 under setting [1] was 2.1 nM.

Consider `Cc1cc(-c2n[nH]c3cc(NC(=O)NCCC4CCOC4)ncc23)ccn1` (centres unmarked) [Example 387], for which the IC50 under setting [1] was found to be 4.42 nM. As for `Cc1cc(-c2n[nH]c3cc(NC(=O)NC4(CN)CCc5cc(F)ccc54)ncc23)ccn1` (centres unmarked) [Example 492], the IC50 under setting [1] amounted to 26 nM. In the case of `Cc1cc(-c2n[nH]c3cc(NC(=O)NCC4CCCCC4)ncc23)ccn1` [Example 578], under setting [1], the IC50 is 0.561 nM. Same read-out and setting: the result for `Cc1cc(-c2n[nH]c3cc(NC(=O)NC(C)c4ccc(-n5cncn5)cc4)ncc23)ccn1` (centres unmarked) [Example 375] reads 12.8 nM; that for `Cc1cc(-c2n[nH]c3cc(NC(=O)NC(CO)c4cccnc4)ncc23)ccn1` (centres unmarked) [Example 336], 1.03 nM; that for `COC[C@@H](NC(=O)Nc1cc2[nH]nc(-c3ccc(F)cc3)c2cn1)c1ccccn1` [Example 500], 0.778 nM. Regarding `Cc1cc(-c2n[nH]c3cc(NC(=O)N[C@@H]4CCc5ccc(F)cc54)ncc23)ccn1` [Example 270], under setting [1], the half-inhibitory concentration (IC50) is 3.73 nM. For `C[C@@H](NC(=O)Nc1cc2[nH]nc(C3CCC3)c2cn1)c1ccc(F)cc1` [Example 144], under setting [1], the IC50 stood at 3.46 nM.

Consider `Cc1cc(-c2n[nH]c3cc(NC(=O)NCc4cccc(S(C)(=O)=O)c4)ncc23)ccn1` [Example 619], for which the half-inhibitory concentration (IC50) under setting [1] came to 0.159 nM.

`C[C@@H](NC(=O)Nc1cc2[nH]nc(C(=O)N[C@@H]3CCN(O)C3=O)c2cn1)c1ccccc1` [Example 134]: the IC50 under setting [1] stood at 103 nM. With `C[C@@H](NC(=O)Nc1cc2[nH]nc(C3CCC3)c2cn1)c1ccccc1` [Example 145], the IC50 under setting [1] was determined as 2.44 nM. On to `Cc1cc(-c2n[nH]c3cc(NC(=O)NC(CF)c4ccccc4)ncc23)ccn1` (centres unmarked) [Example 354], for which, under setting [1], the 50% inhibitory concentration (IC50) came to 0.474 nM.

`O=C(Nc1cc2[nH]nc(C3CC3)c2cn1)NC1CCCOc2ccccc21` (centres unmarked) [Example 153]: the IC50 under setting [1] is 2.28 nM. In the case of `CC(C)CN(C)c1ncc(-c2n[nH]c3cc(NC(=O)N[C@H](C)c4ccc(F)cc4)ncc23)cn1` [Example 309], the half-maximal inhibitory concentration (IC50) under setting [1] is 44.5 nM. Same read-out and setting: the result for `Cc1cc(-c2n[nH]c3cc(NC(=O)N[C@@H]4COC[C@H]4c4ccccc4)ncc23)ccn1` [Example 580] reads 0.193 nM. In the case of `COCCOC[C@@H](NC(=O)Nc1cc2[nH]nc(-c3cc(C)on3)c2cn1)c1ccccc1` [Example 700], the IC50 under setting [1] was determined as 11.9 nM. `O=C(Nc1ncc2c(-c3ccncc3)n[nH]c2c1F)N[C@H](CO)c1ccccc1` [Example 548]: under setting [1], the IC50 was 0.315 nM. Consider `Cc1cc(-c2n[nH]c3c(F)c(NC(=O)NCc4ccccc4)ncc23)ccn1` [Example 536], for which the IC50 under setting [1] was determined as 1.14 nM.

For the compound `C[C@@H](NC(=O)Nc1cc2[nH]nc(CO)c2cn1)c1ccccc1` [Example 615], the concentration for half-maximal inhibition (IC50) under setting [1] was found to be 6.16 nM. For `Cc1cc(-c2n[nH]c3cc(NC(=O)NCc4ncco4)ncc23)ccn1` [Example 433], the IC50 under setting [1] amounted to 2.97 nM. Turning to `Cc1cc(-c2n[nH]c3cc(NC(=O)NCC4CNC(c5ccccc5)C4)ncc23)ccn1` (centres unmarked) [Example 409], under setting [1], the IC50 was 5.69 nM. For the compound `C[C@@H](NC(=O)Nc1ncc2c(C#N)n[nH]c2c1F)c1ccccc1` [Example 540], the IC50 under setting [1] came out at 946 nM. Consider `Cc1cc(-c2n[nH]c3cc(NC(=O)NC(CN)c4ccc(F)cc4)ncc23)ccn1` (centres unmarked) [Example 522], for which the IC50 under setting [1] is 0.357 nM. For the compound `Cc1cc(-c2n[nH]c3cc(NC(=O)NCc4cncc(F)c4)ncc23)ccn1` [Example 51, 1-[(5-fluoropyridin-3-yl)methyl]-3-[3-(2-methylpyridin-4-yl)-1H-pyrazolo[4,3-c]pyridin-6-yl]urea], the IC50 is 1 nM under setting [1] and 0.2 to 1.7 nM under setting [2]. Turning to `Cc1cc(-c2n[nH]c3cc(NC(=O)NC(C)CC4CCCO4)ncc23)ccn1` (centres unmarked) [Example 239], the IC50 under setting [1] came to 5.88 nM. As to `CN(C)CCNC(=O)Nc1cc2[nH]nc(-c3ccc(F)cc3)c2cn1` [Example 224], under setting [1], the IC50 turned out to be 24.3 nM. For the compound `CCCC(=O)c1n[nH]c2cc(NC(=O)N[C@H](COC)c3ccccc3)ncc12` [Example 684], the IC50 under setting [1] was 26.8 nM.

Regarding `NC(=O)Nc1cc2[nH]nc(-c3ccc(F)cc3)c2cn1` [Example 34, 1-(3-(4-fluorophenyl)-1H-pyrazolo[4,3-c]pyridin-6-yl)urea], the IC50 is 1.68 nM under setting [1] and 0.2 to 1.7 nM under setting [2]. Regarding `COC(=O)[C@@H](NC(=O)Nc1cc2[nH]nc(-c3ccnc(C)c3)c2cn1)C(C)C` [Example 460], under setting [1], the IC50 came to 160 nM.

Turning to `C[C@@H](NC(=O)Nc1cc2[nH]nc(-c3cncc(F)c3)c2cn1)c1ccc(F)cc1` [Example 664], the concentration for half-maximal inhibition (IC50) under setting [1] came out at 2.49 nM. For `COC[C@H](NC(=O)Nc1cc2[nH]nc(-c3ccnc(C)c3)c2cn1)c1ccccc1` [Example 587], the IC50 under setting [1] was determined as 12.6 nM. Still for that read-out and setting: the result for `Cc1cc(-c2n[nH]c3cc(NC(=O)NC(CCO)c4ccccc4)ncc23)ccn1` (centres unmarked) [Example 334] reads 0.333 nM; that for `O=C(NCc1ccc(F)cc1)Nc1cc2[nH]nc(C3CC3)c2cn1` [Example 140, 1-(3-cyclopropyl-1H-pyrazolo[4,3-c]pyridin-6-yl)-3-(4-fluorobenzyl)urea], 23.5 nM; that for `Cc1cc(-c2n[nH]c3cc(NC(=O)NCC4CC(C)(C)OC(C)(C)C4)ncc23)ccn1` [Example 370], 1.45 nM.
